Measured values published in patent US10329302B2, “Bicyclic-fused heteroaryl or aryl compounds” (Pfizer Inc., priority 2014, dated 2019).
Like-named read-outs stand apart in the source and are kept apart here.

How the values were obtained:
[1] = target: human IRAK4 kinase domain (aa 154-460) (Homo sapiens (Human), UniProt Q9NWZ3); assay: IRAK4 Enzymatic DELFIA Assay, Protocol B; type: biochemical
Excerpt: IRAK4 Enzymatic DELFIA Assay, Protocol B.

[2] = system: R848-induced TNFα production by human peripheral blood mononuclear cells (PBMCs); assay: R848 Induced TNFα in Human PBMC Assay; type: cell-based; conditions: Homo sapiens, PBMC, 3 h, read-out: R848-induced TNFa PBMC IC50 (nM)
[3] = target: human IRAK4 FL (Full Length) (Homo sapiens (Human), UniProt Q9NWZ3); assay: IRAK4 Enzymatic DELFIA Assay, Protocol A; type: biochemical
Sequence of human IRAK4 FL (Full Length) (Q9NWZ3 whole entry, the tested form may be a part): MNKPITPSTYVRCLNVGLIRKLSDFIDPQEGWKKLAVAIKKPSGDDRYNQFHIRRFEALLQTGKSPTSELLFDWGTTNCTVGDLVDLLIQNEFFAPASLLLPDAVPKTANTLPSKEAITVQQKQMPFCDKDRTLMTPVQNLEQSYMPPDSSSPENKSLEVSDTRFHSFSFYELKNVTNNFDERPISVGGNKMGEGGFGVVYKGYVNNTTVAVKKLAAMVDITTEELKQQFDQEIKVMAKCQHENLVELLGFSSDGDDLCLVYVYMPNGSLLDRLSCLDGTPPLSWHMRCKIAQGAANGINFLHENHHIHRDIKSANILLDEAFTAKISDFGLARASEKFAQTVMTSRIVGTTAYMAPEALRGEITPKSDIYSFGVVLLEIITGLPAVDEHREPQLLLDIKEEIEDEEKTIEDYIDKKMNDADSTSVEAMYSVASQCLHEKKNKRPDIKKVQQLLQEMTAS

[4] = human IRAK4 kinase domain (aa 154-460), 0.6 mM ATP (KM), read-out: IRAK4 DELFIA Protocol B IC50
[5] = human IRAK4 FL, 0.6 mM ATP (KM), read-out: IRAK4 DELFIA Protocol A IC50

Sequence of human IRAK4 kinase domain (aa 154-460) (Q9NWZ3 154-460): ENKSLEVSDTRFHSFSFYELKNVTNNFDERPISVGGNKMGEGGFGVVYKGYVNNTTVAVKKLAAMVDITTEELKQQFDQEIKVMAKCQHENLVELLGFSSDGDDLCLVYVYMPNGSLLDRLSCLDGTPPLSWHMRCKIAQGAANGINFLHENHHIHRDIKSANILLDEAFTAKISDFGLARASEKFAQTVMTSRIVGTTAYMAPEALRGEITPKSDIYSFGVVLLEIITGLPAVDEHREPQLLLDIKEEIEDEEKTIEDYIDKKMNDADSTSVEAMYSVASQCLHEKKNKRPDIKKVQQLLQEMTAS

Compound	IC50 [1] [nM]	IC50 [1, 4] [nM]	IC50 [2] [nM]	IC50 [3, 5] [nM]	IC50 [3] [nM]
CC(C)Oc1cc2c(OC3CC[C@@H]4CN(C(=O)CC#N)C[C@H]34)ccnc2cc1C(N)=O (single isomer, unassigned) [Example 71]	153				
CC(C)Oc1cc2c(OC3C[C@@H]4C[C@H]3CN(C(=O)CC#N)C4)ccnc2cc1C(N)=O (stereo in doubt) [Example 92, 4-{[(1S,5S,6S)-3-(cyanoacetyl)-3-azabicyclo[3.2.1]oct-6-yl]oxy}-6-(propan-2-yloxy)quinoline-7-carboxamide]		473			
CC(C)Oc1cc2c(OCC3CNC3)ccnc2cc1C(N)=O [Example 1, 4-(azetidin-3-ylmethoxy)-6-(propan-2-yloxy)quinoline-7-carboxamide]		2910			
CC[C@H]1[C@@H](COc2nccc3cc(C(N)=O)c(OC)cc23)NC(=O)[C@@H]1OC [Example 343, 1-{[(2S,3S,4R)-3-ethyl-4-methoxy-5-oxopyrrolidin-2-yl]methoxy}-7-methoxyisoquinoline-6-carboxamide]			408	41	
CC[C@H]1[C@@H](COc2nccc3cc(C(N)=O)c(OC)cc23)NC(=O)C1(F)F [Example 345, 1-{[(2S,3S)-3-ethyl-4,4-difluoro-5-oxopyrrolidin-2-yl]methoxy}-7-methoxyisoquinoline-6-carboxamide]			1.6	0.2	
COC[C@H]1[C@@H](COc2nccc3cc(C(N)=O)c(OC)cc23)NC(=O)C1(F)F [Example 347, 1-{[(2S,3R)-4,4-difluoro-3-(methoxymethyl)-5-oxopyrrolidin-2-yl]methoxy}-7-methoxyisoquinoline-6-carboxamide]			27	0.6	
COC[C@@H]1[C@H](F)C(=O)N[C@@H]1COc1nccc2cc(C(N)=O)c(OC)cc12 [Example 348, 1-{[(2S,3R,4S)-4-fluoro-3-(methoxymethyl)-5-oxopyrrolidin-2-yl]methoxy}-7-methoxyisoquinoline-6-carboxamide]			42	0.7	
COc1cc2c(OC[C@H]3NC(=O)[C@@H](OC)[C@H]3C)nccc2cc1C(N)=O [Example 349, 7-methoxy-1-{[(2S,3S,4S)-4-methoxy-3-methyl-5-oxopyrrolidin-2-yl]methoxy}isoquinoline-6-carboxamide]			9460	2960	
COc1cc2c(OC[C@H]3NC(=O)[C@H](OC)[C@H]3C)nccc2cc1C(N)=O [Example 350, 7-methoxy-1-{[(2S,3S,4R)-4-methoxy-3-methyl-5-oxopyrrolidin-2-yl]methoxy}isoquinoline-6-carboxamide]			568	58	
COC[C@H]1[C@@H](COc2nccc3cc(C(N)=O)c(OC)cc23)NC(=O)[C@@H]1F [Example 351, 1-{[(2S,3R,4R)-4-fluoro-3-(methoxymethyl)-5-oxopyrrolidin-2-yl]methoxy}-7-methoxyisoquinoline-6-carboxamide]			213	6.3	
CC[C@@H]1[C@H](O)C(=O)N[C@@H]1COc1nccc2cc(C(N)=O)c(OC)cc12 [Example 352, 1-{[(2S,3S,4S)-3-ethyl-4-hydroxy-5-oxopyrrolidin-2-yl]methoxy}-7-methoxyisoquinoline-6-carboxamide]			557	3.3	
CC[C@H]1[C@@H](COc2nccc3cc(C(N)=O)c(OC)cc23)NC(=O)[C@@H]1O [Example 353, 1-{[(2S,3S,4R)-3-ethyl-4-hydroxy-5-oxopyrrolidin-2-yl]methoxy}-7-methoxyisoquinoline-6-carboxamide]			20	0.5	
COc1cc2c(OC[C@H]3NC(=O)C[C@H]3CCF)nccc2cc1C(N)=O [Example 355, 1-{[(2S,3S)-3-(2-fluoroethyl)-5-oxopyrrolidin-2-yl]methoxy}-7-methoxyisoquinoline-6-carboxamide]			33	1.7	
CC[C@@H]1[C@H](N)C(=O)N[C@@H]1COc1nccc2cc(C(N)=O)c(OC)cc12 [Example 356, 1-{[(2S,3R,4S)-4-amino-3-ethyl-5-oxopyrrolidin-2-yl]methoxy}-7-methoxyisoquinoline-6-carboxamide]			594	115	
CC[C@H]1[C@@H](COc2nccc3cc(C(N)=O)c(OC)cc23)NC(=O)[C@@H]1N [Example 357, 1-{[(2S,3R,4R)-4-amino-3-ethyl-5-oxopyrrolidin-2-yl]methoxy}-7-methoxyisoquinoline-6-carboxamide]			588	30	
CC[C@@H]1[C@H](F)C(=O)N[C@@H]1COc1nccc2cc(C(N)=O)c(OC(C)C)cc12 [Example 358, 1-{[(2S,3S,4S)-3-ethyl-4-fluoro-5-oxopyrrolidin-2-yl]methoxy}-7-(propan-2-yloxy)isoquinoline-6-carboxamide]			1.3	0.4	

Compound	IC50 [1] [nM]	IC50 [1, 4] [nM]	IC50 [2] [nM]	IC50 [3, 5] [nM]	IC50 [3] [nM]
CCOc1cc2c(OC[C@H]3NC(=O)[C@@H](F)[C@H]3CC)nccc2cc1C(N)=O [Example 359, 7-ethoxy-1-{[(2S,3S,4S)-3-ethyl-4-fluoro-5-oxopyrrolidin-2-yl]methoxy}isoquinoline-6-carboxamide]			3.9	0.4	
CC[C@@H]1[C@H](F)C(=O)N[C@@H]1COc1ncc(F)c2cc(C(N)=O)c(OC)cc12 [Example 360, 1-{[(2S,3S,4S)-3-ethyl-4-fluoro-5-oxopyrrolidin-2-yl]methoxy}-4-fluoro-7-methoxyisoquinoline-6-carboxamide]			3.9	0.1	
CC[C@@H]1[C@H](F)C(=O)N[C@@H]1COc1nccc2cc(C(N)=O)c(OC)c(F)c12 [Example 361, 1-{[(2S,3S,4S)-3-ethyl-4-fluoro-5-oxopyrrolidin-2-yl]methoxy}-8-fluoro-7-methoxyisoquinoline-6-carboxamide]			27	4.8	
CC[C@@H]1CC(=O)N[C@@H]1COc1ncc(F)c2cc(C(N)=O)c(OC)cc12 [Example 362, 1-{[(2S,3R)-3-ethyl-5-oxopyrrolidin-2-yl]methoxy}-4-fluoro-7-methoxyisoquinoline-6-carboxamide]			28	1.1	
CC[C@@H]1CC(=O)N[C@@H]1COc1nccc2cc(C(N)=O)c(OC)c(F)c12 [Example 363, 1-{[(2S,3R)-3-ethyl-5-oxopyrrolidin-2-yl]methoxy}-8-fluoro-7-methoxyisoquinoline-6-carboxamide]			110	11	
COc1cc2c(OC[C@H]3NC(=O)[C@@H]4[C@@H](C)[C@@H]43)ncc(F)c2cc1C(N)=O [Example 364, 4-fluoro-7-methoxy-1-{[(1S,2S,5R)-6-methyl-4-oxo-3-azabicyclo[3.1.0]hex-2-yl]methoxy}isoquinoline-6-carboxamide]			145	16	
COc1c(C(N)=O)cc2ccnc(OC[C@H]3NC(=O)[C@@H]4[C@@H](C)[C@@H]43)c2c1F [Example 365, 8-fluoro-7-methoxy-1-{[(1S,2S,5R)-6-methyl-4-oxo-3-azabicyclo[3.1.0]hex-2-yl]methoxy}isoquinoline-6-carboxamide]			724	187	
COc1cc2c(OC[C@H]3NC(=O)C[C@H]3CF)nccc2cc1C(N)=O [Example 366, 1-{[(2S,3R)-3-(fluoromethyl)-5-oxopyrrolidin-2-yl]methoxy}-7-methoxyisoquinoline-6-carboxamide]			91		6.1
COc1cc2c(OC[C@H]3NC(=O)[C@@H](F)[C@H]3CF)nccc2cc1C(N)=O [Example 367, 1-{[(2S,3R,4S)-4-fluoro-3-(fluoromethyl)-5-oxopyrrolidin-2-yl]methoxy}-7-methoxyisoquinoline-6-carboxamide]			14	0.4	
COc1cc2c(OC[C@H]3NC(=O)[C@@H](F)[C@H]3C3CC3)nccc2cc1C(N)=O [Example 368, 1-{[(2S,3S,4S)-3-cyclopropyl-4-fluoro-5-oxopyrrolidin-2-yl]methoxy}-7-methoxyisoquinoline-6-carboxamide]			10	0.3	
COc1cc2c(OC[C@H]3NC(=O)[C@H](F)[C@H]3C3CC3)nccc2cc1C(N)=O [Example 369, 1-{[(2S,3S,4R)-3-cyclopropyl-4-fluoro-5-oxopyrrolidin-2-yl]methoxy}-7-methoxyisoquinoline-6-carboxamide]			45	3.7	
COc1cc2c(OC[C@H]3NC(=O)[C@@H](F)[C@H]3CCF)nccc2cc1C(N)=O [Example 370, 1-{[(2S,3S,4S)-4-fluoro-3-(2-fluoroethyl)-5-oxopyrrolidin-2-yl]methoxy}-7-methoxyisoquinoline-6-carboxamide]			3.7	0.1	
CC(C)Oc1cc2c(OC[C@@H]3CCC(=O)N3)ncc(-c3cn(C)cn3)c2cc1C(N)=O [Example 371, 4-(1-methyl-1H-imidazol-4-yl)-1-{[(2S)-5-oxopyrrolidin-2-yl]methoxy}-7-(propan-2-yloxy)isoquinoline-6-carboxamide]			604	7	
Cc1nc(-c2cnc(OC[C@@H]3CCC(=O)N3)c3cc(OC(C)C)c(C(N)=O)cc23)cn1C [Example 372, 4-(1,2-dimethyl-1H-imidazol-4-yl)-1-{[(2S)-5-oxopyrrolidin-2-yl]methoxy}-7-(propan-2-yloxy)isoquinoline-6-carboxamide]			649	11	
Cc1nc(-c2cnc(OC[C@@H]3CCC(=O)N3)c3cc(OC(C)C)c(C(N)=O)cc23)c[nH]1 [Example 373, 4-(2-methyl-1H-imidazol-4-yl)-1-{[(2S)-5-oxopyrrolidin-2-yl]methoxy}-7-(propan-2-yloxy)isoquinoline-6-carboxamide]			6160	35	
